Reference: ChEMBL document CHEMBL2163286, “1,2,3,4-tetrahydroquinoline-based selective human neuronal nitric oxide synthase (nNOS) inhibitors: lead optimization studies resulting in the identification of N-(1-(2-(methylamino)ethyl)-1,2,3,4-tetrahydroquinolin-6-yl)thiophene-2-carboximidamide as a preclinical development candidate” (J Med Chem, 2012)
Each block holds one molecule with its values, some of them ahead of it.

Tests used:
[1] = target: Voltage-gated inwardly rectifying potassium channel KCNH2 (Homo sapiens, UniProt Q12809); test: Inhibition of human ERG expressed in HEK293 cells at -80 mV holding potential assessed as reduction in tail current amplitude by conventional patch clamp assay; assay type: cell-based
[2] = target: T1, Muscarinic acetylcholine receptor M4 (Homo sapiens, UniProt P08173); test: Inhibition of human muscarinic M4 receptor by cell based functional assay
T1 sequence (P08173 whole entry): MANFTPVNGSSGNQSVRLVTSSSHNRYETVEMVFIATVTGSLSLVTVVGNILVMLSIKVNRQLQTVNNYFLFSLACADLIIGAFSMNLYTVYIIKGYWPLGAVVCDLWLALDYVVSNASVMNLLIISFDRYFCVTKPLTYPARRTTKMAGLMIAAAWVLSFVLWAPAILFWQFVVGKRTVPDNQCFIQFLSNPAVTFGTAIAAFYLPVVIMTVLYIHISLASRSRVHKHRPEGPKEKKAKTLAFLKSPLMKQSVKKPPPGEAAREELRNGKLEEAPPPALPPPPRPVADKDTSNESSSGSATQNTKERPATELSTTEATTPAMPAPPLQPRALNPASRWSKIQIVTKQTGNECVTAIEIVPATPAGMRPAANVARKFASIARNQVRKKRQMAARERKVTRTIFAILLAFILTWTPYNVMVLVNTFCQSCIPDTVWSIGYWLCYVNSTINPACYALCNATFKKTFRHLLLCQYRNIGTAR

[3] = target: Muscarinic acetylcholine receptor M3 (Homo sapiens, UniProt P20309); test: Inhibition of human muscarinic M3 receptor by cell based functional assay
[4] = target: T2, Muscarinic acetylcholine receptor M2 (Homo sapiens, UniProt P08172); test: Inhibition of human muscarinic M2 receptor by cell based functional assay
T2 sequence (P08172 whole entry): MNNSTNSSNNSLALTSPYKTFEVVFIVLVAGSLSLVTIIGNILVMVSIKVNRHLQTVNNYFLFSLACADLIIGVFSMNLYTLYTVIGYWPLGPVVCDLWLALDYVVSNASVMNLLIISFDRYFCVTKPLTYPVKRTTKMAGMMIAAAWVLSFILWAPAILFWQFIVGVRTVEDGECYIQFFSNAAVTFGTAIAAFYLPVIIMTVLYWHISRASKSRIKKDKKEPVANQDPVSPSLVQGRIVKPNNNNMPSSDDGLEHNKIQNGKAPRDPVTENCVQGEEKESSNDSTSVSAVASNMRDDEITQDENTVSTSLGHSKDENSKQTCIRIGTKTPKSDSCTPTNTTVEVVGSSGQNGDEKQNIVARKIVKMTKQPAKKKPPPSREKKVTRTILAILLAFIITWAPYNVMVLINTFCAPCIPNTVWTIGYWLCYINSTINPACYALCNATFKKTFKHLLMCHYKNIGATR

[5] = target: T3, Muscarinic acetylcholine receptor M1 (Homo sapiens, UniProt P11229); test: Inhibition of human muscarinic M1 receptor by cell based functional assay
T3 sequence (P11229 whole entry): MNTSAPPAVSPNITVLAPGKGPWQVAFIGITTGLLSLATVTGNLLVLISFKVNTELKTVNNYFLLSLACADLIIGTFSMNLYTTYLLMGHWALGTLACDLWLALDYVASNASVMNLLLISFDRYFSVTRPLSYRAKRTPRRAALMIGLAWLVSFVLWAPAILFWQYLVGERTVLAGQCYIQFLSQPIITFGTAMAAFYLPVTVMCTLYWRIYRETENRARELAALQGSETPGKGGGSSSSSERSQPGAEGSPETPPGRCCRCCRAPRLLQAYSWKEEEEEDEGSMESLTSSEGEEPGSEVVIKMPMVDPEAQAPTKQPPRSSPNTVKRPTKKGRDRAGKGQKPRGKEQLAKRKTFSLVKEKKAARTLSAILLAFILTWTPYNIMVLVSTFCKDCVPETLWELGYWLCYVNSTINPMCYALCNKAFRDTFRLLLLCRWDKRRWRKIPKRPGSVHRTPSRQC

[6] = target: T4, Adrenergic receptor alpha-2 (Rattus norvegicus, UniProt P22086+P19328+P22909); test: Inhibition of rat Alpha-2 adrenergic receptor by cell based functional assay
T4 sequence (P22086 whole entry): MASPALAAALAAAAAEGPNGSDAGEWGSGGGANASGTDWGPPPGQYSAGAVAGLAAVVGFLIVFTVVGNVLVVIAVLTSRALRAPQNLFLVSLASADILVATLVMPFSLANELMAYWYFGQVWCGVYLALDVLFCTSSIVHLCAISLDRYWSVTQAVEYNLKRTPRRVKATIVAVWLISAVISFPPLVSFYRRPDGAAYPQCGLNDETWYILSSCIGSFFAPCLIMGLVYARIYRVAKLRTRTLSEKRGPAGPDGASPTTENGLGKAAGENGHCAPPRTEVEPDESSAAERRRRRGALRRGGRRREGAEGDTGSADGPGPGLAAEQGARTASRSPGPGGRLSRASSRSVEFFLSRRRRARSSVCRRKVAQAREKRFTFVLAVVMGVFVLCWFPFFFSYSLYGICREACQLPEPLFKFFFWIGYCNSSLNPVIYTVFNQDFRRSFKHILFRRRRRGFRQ
T4 sequence (P19328 whole entry): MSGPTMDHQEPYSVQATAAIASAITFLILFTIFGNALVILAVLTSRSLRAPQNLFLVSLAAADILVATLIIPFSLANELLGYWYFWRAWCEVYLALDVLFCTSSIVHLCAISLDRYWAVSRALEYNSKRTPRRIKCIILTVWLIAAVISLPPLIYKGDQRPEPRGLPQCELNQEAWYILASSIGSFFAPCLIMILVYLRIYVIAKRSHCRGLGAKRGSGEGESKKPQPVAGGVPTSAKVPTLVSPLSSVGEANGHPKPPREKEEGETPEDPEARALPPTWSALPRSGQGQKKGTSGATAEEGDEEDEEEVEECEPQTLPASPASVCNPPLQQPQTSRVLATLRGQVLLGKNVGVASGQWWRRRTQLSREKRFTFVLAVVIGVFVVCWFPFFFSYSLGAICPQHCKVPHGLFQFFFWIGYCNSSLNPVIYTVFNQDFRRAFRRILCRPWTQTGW
T4 sequence (P22909 whole entry): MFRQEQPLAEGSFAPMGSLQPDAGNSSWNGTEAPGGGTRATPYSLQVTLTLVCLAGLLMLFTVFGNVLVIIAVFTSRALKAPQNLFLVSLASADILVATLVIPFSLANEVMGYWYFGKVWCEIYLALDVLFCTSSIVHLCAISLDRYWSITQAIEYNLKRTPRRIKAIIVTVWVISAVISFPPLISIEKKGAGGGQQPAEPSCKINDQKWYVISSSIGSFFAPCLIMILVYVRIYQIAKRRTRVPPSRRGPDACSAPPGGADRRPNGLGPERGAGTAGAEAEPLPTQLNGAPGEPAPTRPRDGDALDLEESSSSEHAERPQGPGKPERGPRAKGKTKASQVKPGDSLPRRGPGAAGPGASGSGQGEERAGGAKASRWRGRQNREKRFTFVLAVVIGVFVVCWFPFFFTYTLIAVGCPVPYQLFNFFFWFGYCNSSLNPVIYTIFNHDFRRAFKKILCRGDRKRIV

[7] = Plasma protein binding in human plasma; assay type: ADME, cell-free; settings: read-out: PPB (converted)
Cytochrome P450 2D6 = Cytochrome P450 2D6 (Homo sapiens, UniProt P10635); test: Inhibition of human CYP2D6; assay type: ADME
Cytochrome P450 3A4 = Cytochrome P450 3A4 (Homo sapiens, UniProt P08684); test: Inhibition of human CYP3A4; assay type: ADME
Cytochrome P450 2C9 = Cytochrome P450 2C9 (Homo sapiens, UniProt P11712); test: Inhibition of human CYP2C9; assay type: ADME
Cytochrome P450 2C19 = Cytochrome P450 2C19 (Homo sapiens, UniProt P33261); test: Inhibition of human CYP2C19; assay type: ADME
Cytochrome P450 1A2 = target: T5, Cytochrome P450 1A2 (Homo sapiens, UniProt P05177); test: Inhibition of human CYP1A2; assay type: ADME
T5 sequence (P05177 whole entry): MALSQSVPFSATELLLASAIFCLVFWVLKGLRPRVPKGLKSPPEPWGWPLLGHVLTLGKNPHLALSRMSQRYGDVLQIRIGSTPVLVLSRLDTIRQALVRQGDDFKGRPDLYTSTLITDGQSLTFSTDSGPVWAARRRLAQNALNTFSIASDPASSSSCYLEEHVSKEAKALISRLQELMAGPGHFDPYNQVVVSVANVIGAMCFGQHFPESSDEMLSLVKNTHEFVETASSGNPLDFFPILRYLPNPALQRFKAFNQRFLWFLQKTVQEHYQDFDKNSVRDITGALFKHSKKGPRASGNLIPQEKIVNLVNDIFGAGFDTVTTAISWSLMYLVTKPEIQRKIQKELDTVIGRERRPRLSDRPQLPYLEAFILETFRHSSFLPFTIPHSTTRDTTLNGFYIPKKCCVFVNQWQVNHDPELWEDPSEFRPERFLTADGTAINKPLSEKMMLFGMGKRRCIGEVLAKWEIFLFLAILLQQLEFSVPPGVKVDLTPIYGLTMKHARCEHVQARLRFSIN

[8] = Plasma clearance in rat at 3 mg/kg, iv or 10 mg/kg, po; assay type: ADME, organism-based
[9] = Oral bioavailability life in rat at 10 mg/kg; assay type: ADME, organism-based; settings: in vivo
[10] = Volume of distribution at steady state in rat at 3 mg/kg, iv or 10 mg/kg, po; assay type: ADME, organism-based; settings: in vivo, read-out: Vdss
[11] = AUC in rat at 3 mg/kg, iv or 10 mg/kg, po; assay type: ADME, organism-based; settings: plasma
[12] = Tmax in rat at 3 mg/kg, iv or 10 mg/kg, po; assay type: ADME, organism-based; settings: in vivo
[13] = Half life in rat at 10 mg/kg, po; assay type: ADME, organism-based; design: dose 10 mg/kg, route oral; settings: in vivo
[14] = Cmax in rat at 3 mg/kg, iv or 10 mg/kg, po; assay type: ADME, organism-based; settings: in vivo
[15] = target: Nitric oxide synthase, inducible (Homo sapiens, UniProt P35228); test: Inhibition of human recombinant iNOS expressed in Sf9 cells assessed as reduction in conversion of [3H]L-arginine to [3H]L-citrulline preincubated for 15 mins by radiometric method
Nitric oxide synthase 1 = Nitric oxide synthase 1 (Homo sapiens, UniProt P29475); test: Inhibition of human nNOS expressed in Sf9 cells assessed as reduction in conversion of [3H]L-arginine to [3H]L-citrulline preincubated for 15 mins by radiometric method
Chain of Nitric oxide synthase 1 (P29475 whole entry): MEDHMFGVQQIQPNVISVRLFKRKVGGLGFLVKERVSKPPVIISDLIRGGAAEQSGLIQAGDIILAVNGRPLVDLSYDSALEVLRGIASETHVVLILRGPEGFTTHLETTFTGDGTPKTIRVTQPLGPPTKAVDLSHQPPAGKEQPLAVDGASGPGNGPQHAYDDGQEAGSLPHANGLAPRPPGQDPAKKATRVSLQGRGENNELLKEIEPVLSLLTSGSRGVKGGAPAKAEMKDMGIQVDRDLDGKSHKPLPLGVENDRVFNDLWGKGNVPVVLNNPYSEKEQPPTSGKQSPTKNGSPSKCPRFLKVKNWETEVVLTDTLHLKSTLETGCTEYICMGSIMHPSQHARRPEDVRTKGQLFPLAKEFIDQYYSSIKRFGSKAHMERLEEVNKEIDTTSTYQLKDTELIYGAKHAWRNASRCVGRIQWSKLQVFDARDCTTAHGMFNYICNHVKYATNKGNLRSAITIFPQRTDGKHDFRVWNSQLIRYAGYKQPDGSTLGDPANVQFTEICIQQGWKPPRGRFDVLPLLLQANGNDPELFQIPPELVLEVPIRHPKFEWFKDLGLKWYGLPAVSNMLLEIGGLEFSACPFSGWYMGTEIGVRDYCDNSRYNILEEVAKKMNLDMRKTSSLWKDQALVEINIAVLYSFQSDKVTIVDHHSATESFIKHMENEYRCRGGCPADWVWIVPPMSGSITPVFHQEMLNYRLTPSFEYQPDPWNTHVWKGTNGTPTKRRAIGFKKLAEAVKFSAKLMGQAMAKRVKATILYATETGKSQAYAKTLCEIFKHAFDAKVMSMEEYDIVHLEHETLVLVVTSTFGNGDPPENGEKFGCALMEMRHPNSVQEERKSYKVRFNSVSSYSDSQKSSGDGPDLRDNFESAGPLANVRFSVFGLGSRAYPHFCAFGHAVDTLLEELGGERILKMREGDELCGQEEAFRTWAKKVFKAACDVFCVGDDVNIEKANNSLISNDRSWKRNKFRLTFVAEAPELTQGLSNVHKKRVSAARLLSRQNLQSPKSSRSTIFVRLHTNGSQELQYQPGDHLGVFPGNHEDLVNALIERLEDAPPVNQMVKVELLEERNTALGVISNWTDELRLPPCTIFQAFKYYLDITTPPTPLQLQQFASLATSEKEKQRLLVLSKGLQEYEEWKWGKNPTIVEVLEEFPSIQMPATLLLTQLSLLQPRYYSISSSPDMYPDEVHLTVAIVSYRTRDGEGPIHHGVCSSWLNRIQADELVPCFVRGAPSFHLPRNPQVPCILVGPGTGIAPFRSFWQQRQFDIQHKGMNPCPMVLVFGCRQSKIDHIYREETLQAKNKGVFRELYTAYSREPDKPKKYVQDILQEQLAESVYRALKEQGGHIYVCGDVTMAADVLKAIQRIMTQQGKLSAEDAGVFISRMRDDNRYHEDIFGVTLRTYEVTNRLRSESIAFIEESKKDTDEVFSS

Chain of Voltage-gated inwardly rectifying potassium channel KCNH2 (Q12809 whole entry): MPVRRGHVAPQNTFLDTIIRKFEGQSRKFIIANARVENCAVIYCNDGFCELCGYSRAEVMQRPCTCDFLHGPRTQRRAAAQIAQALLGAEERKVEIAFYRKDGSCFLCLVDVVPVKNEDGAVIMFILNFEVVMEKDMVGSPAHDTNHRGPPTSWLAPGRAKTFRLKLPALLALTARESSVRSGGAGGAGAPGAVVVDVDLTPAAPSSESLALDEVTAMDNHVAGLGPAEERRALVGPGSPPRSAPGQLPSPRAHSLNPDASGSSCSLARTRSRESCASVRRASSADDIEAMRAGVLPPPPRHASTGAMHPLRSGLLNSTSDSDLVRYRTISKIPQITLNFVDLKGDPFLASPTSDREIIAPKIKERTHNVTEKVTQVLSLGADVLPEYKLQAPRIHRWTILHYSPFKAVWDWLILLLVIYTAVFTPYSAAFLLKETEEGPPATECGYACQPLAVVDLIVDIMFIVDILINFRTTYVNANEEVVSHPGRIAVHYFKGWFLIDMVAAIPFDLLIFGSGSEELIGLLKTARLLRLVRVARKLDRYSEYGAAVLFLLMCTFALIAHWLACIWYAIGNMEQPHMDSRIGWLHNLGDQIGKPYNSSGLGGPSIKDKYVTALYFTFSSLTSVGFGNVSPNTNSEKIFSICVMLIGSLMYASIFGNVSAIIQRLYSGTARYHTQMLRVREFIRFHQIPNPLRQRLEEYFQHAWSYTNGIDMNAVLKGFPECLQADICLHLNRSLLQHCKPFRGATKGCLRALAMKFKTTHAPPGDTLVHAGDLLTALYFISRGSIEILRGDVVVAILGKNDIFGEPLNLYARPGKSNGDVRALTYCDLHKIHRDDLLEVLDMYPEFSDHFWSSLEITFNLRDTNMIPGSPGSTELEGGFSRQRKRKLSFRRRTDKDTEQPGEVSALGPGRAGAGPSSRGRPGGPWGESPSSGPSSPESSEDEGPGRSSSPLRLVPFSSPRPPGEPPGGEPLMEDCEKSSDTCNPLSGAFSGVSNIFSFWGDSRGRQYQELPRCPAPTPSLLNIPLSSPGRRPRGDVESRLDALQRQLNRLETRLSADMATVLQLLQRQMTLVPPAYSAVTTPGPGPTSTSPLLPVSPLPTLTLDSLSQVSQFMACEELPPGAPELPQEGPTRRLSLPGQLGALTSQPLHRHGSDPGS
Chain of Nitric oxide synthase, inducible (P35228 whole entry): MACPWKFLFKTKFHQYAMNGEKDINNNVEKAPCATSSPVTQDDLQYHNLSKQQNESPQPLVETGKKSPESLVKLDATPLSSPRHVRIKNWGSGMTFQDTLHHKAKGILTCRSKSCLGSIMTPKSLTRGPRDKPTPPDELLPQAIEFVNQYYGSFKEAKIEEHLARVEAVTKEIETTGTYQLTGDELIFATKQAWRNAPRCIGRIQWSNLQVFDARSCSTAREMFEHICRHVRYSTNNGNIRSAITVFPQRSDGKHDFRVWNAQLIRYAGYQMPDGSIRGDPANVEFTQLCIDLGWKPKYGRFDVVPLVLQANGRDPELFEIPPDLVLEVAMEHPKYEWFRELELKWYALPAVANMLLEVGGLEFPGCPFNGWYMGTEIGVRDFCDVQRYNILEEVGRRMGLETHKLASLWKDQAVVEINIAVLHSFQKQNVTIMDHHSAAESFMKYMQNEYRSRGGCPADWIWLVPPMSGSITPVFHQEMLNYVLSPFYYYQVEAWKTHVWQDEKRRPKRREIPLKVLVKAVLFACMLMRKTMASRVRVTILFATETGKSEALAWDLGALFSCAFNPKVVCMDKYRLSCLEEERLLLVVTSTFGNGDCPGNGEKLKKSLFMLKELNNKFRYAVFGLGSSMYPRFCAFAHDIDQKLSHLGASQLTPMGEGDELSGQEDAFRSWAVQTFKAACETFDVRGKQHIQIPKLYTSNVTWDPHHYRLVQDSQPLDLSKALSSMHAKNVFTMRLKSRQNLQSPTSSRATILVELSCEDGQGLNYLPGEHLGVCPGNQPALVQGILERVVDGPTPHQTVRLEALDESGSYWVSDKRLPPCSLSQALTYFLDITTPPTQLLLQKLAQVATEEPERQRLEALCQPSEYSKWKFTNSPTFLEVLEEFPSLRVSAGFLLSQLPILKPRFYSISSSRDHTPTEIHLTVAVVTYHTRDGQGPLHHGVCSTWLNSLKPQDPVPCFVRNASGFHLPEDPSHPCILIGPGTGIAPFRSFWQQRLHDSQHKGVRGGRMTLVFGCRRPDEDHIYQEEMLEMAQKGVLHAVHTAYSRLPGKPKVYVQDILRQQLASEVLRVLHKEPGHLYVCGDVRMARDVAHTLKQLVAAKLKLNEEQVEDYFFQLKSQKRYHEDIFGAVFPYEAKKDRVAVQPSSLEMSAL
Chain of Cytochrome P450 3A4 (P08684 whole entry): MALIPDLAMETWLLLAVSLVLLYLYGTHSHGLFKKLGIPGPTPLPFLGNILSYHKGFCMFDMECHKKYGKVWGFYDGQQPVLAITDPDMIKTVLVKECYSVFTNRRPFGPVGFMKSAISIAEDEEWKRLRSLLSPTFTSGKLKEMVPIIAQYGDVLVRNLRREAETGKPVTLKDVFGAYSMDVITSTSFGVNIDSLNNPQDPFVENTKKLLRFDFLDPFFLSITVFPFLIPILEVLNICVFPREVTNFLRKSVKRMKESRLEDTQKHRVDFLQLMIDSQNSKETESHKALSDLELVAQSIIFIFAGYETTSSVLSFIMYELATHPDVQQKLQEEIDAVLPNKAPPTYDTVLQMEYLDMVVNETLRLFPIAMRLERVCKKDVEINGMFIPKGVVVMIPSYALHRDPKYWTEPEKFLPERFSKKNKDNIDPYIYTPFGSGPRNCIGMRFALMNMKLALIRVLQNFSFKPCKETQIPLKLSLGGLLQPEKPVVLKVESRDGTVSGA
Chain of Muscarinic acetylcholine receptor M3 (P20309 whole entry): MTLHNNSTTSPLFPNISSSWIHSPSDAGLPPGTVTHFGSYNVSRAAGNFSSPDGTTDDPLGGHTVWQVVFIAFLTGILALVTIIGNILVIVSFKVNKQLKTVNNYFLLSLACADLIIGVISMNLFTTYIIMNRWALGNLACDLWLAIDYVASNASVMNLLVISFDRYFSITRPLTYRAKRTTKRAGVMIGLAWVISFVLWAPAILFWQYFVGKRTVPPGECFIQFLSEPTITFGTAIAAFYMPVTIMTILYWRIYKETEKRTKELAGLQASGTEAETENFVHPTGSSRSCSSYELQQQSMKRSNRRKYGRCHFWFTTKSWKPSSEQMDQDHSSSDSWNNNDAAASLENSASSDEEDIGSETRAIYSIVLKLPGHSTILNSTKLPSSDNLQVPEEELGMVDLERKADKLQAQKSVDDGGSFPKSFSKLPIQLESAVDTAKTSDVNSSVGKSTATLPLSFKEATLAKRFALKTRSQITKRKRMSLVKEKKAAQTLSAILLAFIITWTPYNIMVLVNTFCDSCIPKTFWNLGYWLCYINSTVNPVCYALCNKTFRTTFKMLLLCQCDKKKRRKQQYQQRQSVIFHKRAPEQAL

SMILES: CN1CCC[C@H]1CCN1CCCc2cc(NC(=N)c3cccs3)ccc21
IC50 [1]: 4.7 µM

SMILES: CNCCN1CCCc2cc(NC(=N)c3cccs3)ccc21 [listing 2 of 2 here]
IC50 (Nitric oxide synthase 1): 0.176 µM

SMILES: CCN(C)CCN1CCCc2cc(NC(=N)c3cccs3)ccc21
IC50 [1]: 4.5 µM
IC50 [15]: > 100 µM
IC50 (Nitric oxide synthase 1): 0.097 µM

Now from value to molecule, other results behind:

EC50 [2]: > 40 µM
EC50 [3]: > 40 µM
EC50 [4]: > 40 µM
EC50 [5]: > 40 µM
EC50 [6]: > 40 µM
fraction unbound [7]: 0.6
inhibition (INH) (Cytochrome P450 2D6): Not Active
inhibition (INH) (Cytochrome P450 3A4): Not Active
inhibition (INH) (Cytochrome P450 2C9): Not Active
inhibition (INH) (Cytochrome P450 2C19): Not Active
inhibition (INH) (Cytochrome P450 1A2): Not Active
clearance [8]: 5.26 L/h/kg
bioavailability [9]: 59.9%
Vd [10]: 83.9 L/kg
AUC [11]: 1.16 µg·h/mL
Tmax [12]: 2 h
half-life [13]: 8.1 h
Cmax [14]: 0.88 µM
SMILES: CNCCN1CCCc2cc(NC(=N)c3cccs3)ccc21 [listing 1 of 2 here]

IC50 [15]: > 100 µM
IC50 (Nitric oxide synthase 1): 0.133 µM
SMILES: CN(CCO)CCN1CCCc2cc(NC(=N)c3cccs3)ccc21

IC50 [15]: > 100 µM
SMILES: CNCCCN1CCCc2cc(NC(=N)c3cccs3)ccc21
IC50 [1]: > 30 µM
